Measured values from PubChem BioAssay (NCI).
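All cell lines were grown in 96-well plates and treated with compound for 48 hours. Here, GI50 denotes the concentration required for 50% inhibition of growth. Definition used: TGI = concentration required for complete inhibition of growth.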

Columns and labels:
Assay in all cases: NCI anticancer screen, dose series, 48 h
IGROV1 ovarian = tested on: IGROV1 ovarian
A549 NSCLC = tested on: A549 NSCLC
HCT-116 colon = tested on: HCT-116 colon
SK-MEL-5 melanoma = tested on: SK-MEL-5 melanoma
OVCAR-4 ovarian = tested on: OVCAR-4 ovarian
UACC-257 melanoma = tested on: UACC-257 melanoma
SK-MEL-2 melanoma = tested on: SK-MEL-2 melanoma
UACC-62 melanoma = tested on: UACC-62 melanoma
SN12C renal = tested on: SN12C renal
MCF7 breast = tested on: MCF7 breast

SMILES | TGI (IGROV1 ovarian) [µM] | TGI (A549 NSCLC) [µM] | TGI (HCT-116 colon) [µM] | TGI (SK-MEL-5 melanoma) [µM] | TGI (OVCAR-4 ovarian) [µM] | TGI (UACC-257 melanoma) [µM] | TGI (SK-MEL-2 melanoma) [µM] | TGI (UACC-62 melanoma) [µM] | TGI (SN12C renal) [µM] | GI50 (IGROV1 ovarian) [µM] | GI50 (A549 NSCLC) [µM] | GI50 (HCT-116 colon) [µM] | GI50 (SK-MEL-5 melanoma) [µM] | GI50 (OVCAR-4 ovarian) [µM] | GI50 (UACC-257 melanoma) [µM] | GI50 (SK-MEL-2 melanoma) [µM] | GI50 (UACC-62 melanoma) [µM] | GI50 (MCF7 breast) [µM] | TGI (MCF7 breast) [µM] | GI50 (SN12C renal) [µM]
CCC1(O)C(=O)OCc2c1cc1n(c2=O)Cc2c-1nc1ccccc1c2OC (stereo unspecified) | 5.65 | 1.85 | 1.21 | 0.205 | 2.55 | 2.68 | 14.7 | 0.413 |  |  |  |  |  |  |  |  |  |  |  | 
Cn1c(O)c(C=N)c(=O)n(C)c1=O |  | > 100 |  | > 100 | > 100 | > 100 | > 100 |  | > 100 |  |  |  |  |  |  |  |  |  |  | 
Cc1oncc1C(=O)Nc1ccc(C(F)(F)F)cc1 | > 100 | > 100 | > 100 | > 100 | > 100 | > 100 | > 100 | > 100 | > 100 | 26.7 | 39.8 | 15.6 | 29.3 | 25 | 26.9 | > 100 | 36 | > 100 | > 100 | > 100
CC1=C(C)C(=O)c2c(cc3c4ccccc4ccn23)C1=O | > 100 | > 100 |  | > 100 |  | > 100 | > 100 | > 100 | > 100 |  |  |  |  |  |  |  |  |  |  | 
Nc1ccn(C2OC(CO[P+](=O)OC3C(CO[P+](=O)OC4C(CO[P+](=O)OC5C(CO[P+](=O)OC6C(CO[P+](=O)OC7C(CO[P+](=O)OC8C(CO[P+](=O)OC9C(CO[P+](=O)OC%10C(CO[P+](=O)OC%11C(CO)OC(n%12ccc(N)nc%12=O)C%11(F)F)OC(n%11ccc(N)nc%11=O)C%10(F)F)OC(n%10ccc(N)nc%10=O)C9(F)F)OC(n9ccc(N)nc9=O)C8(F)F)OC(n8ccc(N)nc8=O)C7(F)F)OC(n7ccc(N)nc7=O)C6(F)F)OC(n6ccc(N)nc6=O)C5(F)F)OC(n5ccc(N)nc5=O)C4(F)F)OC(n4ccc(N)nc4=O)C3(F)F)C(O)C2(F)F)c(=O)n1 (stereo unspecified) | > 100 | > 100 | > 100 | > 100 | > 100 |  |  |  |  | > 100 |  |  |  | > 100 | 0.859 | 35 |  |  | > 100 | 
NC(=O)c1cccc(N)c1 | > 100 | > 100 | > 100 | > 100 | > 100 |  | > 100 | > 100 | > 100 | > 100 | > 100 | > 100 | > 100 | > 100 |  | > 100 | > 100 | > 100 | > 100 | > 100
CCOC(=O)NC(=O)c1cn(CCCCCCCCCCC(=O)N2CCN(CCn3cc(C(=O)NC(=O)OCC)c(=O)[nH]c3=O)CC2)c(=O)[nH]c1=O | > 100 | > 100 | > 100 | > 100 | > 100 | > 100 |  | > 100 | > 100 |  |  |  |  |  |  |  |  |  |  | 
O=C(/C=C/c1ccccc1O)c1ccccc1 | 4.12 | 36.1 | 2.99 | 23.9 |  | 25.3 |  | 25.9 | 28.7 | 1.56 | 17 | 1.58 | 11.5 |  | 12.1 |  | 13.1 | 1.34 | 5.69 | 12.9
CC(/C=C/C=C/C=C/C=C/C=C/C(O)=C1/C(=O)C(CCC(=O)O)N(C)C1=O)=C\C(C)C(OC1CC(O)C(O)C(C)O1)C(C)C (stereo unspecified) | 4.48 | 10.5 | 7.15 | 3.85 | 40.1 | 6.66 | 12.9 |  | 13.6 |  |  |  |  |  |  |  |  |  | 33.6 | 
Cn1nc(-c2ccccc2)c(C(=O)/C=C/c2ccccc2)c(N2CCCCC2)c1=O | > 100 | > 100 | > 100 | > 100 |  |  |  | > 100 | > 100 |  |  |  |  |  |  |  |  |  |  | 
S=C1CNC(=S)CN1 | > 100 | > 100 | > 100 | > 100 | > 100 | > 100 | > 100 | > 100 | > 100 |  |  |  |  |  |  |  |  |  |  | 
CCOc1ccc(/C=N/Nc2cc(C)nc3ccc(Cl)cc23)cc1 | 3.64 | 3.72 |  | 3.09 | 3.51 | 3.32 | 3.43 | 3.32 | 3.4 | 1.93 | 2 |  | 1.72 | 1.79 | 1.81 | 1.9 | 1.79 | 1.67 | 3.32 | 1.82
CCC[CH2][Sn]([CH2]CCC)([O]C(=O)c1cc(OC)c(OC)c(OC)c1)[O]C(=O)c1cc(OC)c(OC)c(OC)c1 | 2.73 | 13.8 | 2.66 | 2.97 | 2.9 | 2.47 | 2.31 | 2.12 | 3.68 | 1.32 | 3.59 | 1.37 | 1.49 | 1.48 | 1.09 | 1.1 | 0.892 |  |  | 1.51
COC1OC(COCc2ccc(Cl)cc2)C(OCc2ccc(Cl)cc2)C1O (stereo unspecified) | 50.9 | 37.5 |  | 28.6 | > 100 | 30.7 | 30.6 | 31.9 | 31.8 |  |  |  |  |  |  |  |  |  |  | 
O=[N+]([O-])c1ccc(Oc2cccnc2)c([N+](=O)[O-])c1 | > 100 |  | 6.22 | 11.6 | > 100 | 22.3 | 14.8 | 17.3 | 23.2 | 3.95 |  | 2.43 | 3.04 | 6.4 | 8.81 | 3.97 | 3.75 | 3.74 | 17.6 | 4.3
COc1ccc(Nc2nc(NCc3ccccc3)c3ccccc3n2)cc1 | 25.7 | 16.5 |  | 3.14 | 14.8 | 13.8 | 21.7 | 23.3 | 19.6 | 7.12 | 3.78 |  | 1.68 | 3.11 | 3.82 | 8.72 | 10.1 | 1.81 | 3.63 | 5.19
CCCCCCCCCCCCCCCCc1c(C(=O)OC)[nH]c(=S)[nH]c1=O | > 50 | > 50 | > 50 | > 50 | > 50 | > 50 | > 50 | > 50 | > 50 |  |  |  |  |  |  |  |  |  |  | 
